From PMC2823959 (Analytical biochemistry, 2009) come the findings set out here.

For orientation: Kd means the equilibrium constant for the complex coming apart. Higher therefore signals a looser complex.

This assay has as its target taurine/α-ketoglutarate dioxygenase (TauD) (Escherichia coli, UniProt P37610). Nature of the assay: UV difference absorption titration of apoprotein with global regression analysis. The class given is binding.

taurine/α-ketoglutarate dioxygenase (TauD), sequence (P37610 2-283): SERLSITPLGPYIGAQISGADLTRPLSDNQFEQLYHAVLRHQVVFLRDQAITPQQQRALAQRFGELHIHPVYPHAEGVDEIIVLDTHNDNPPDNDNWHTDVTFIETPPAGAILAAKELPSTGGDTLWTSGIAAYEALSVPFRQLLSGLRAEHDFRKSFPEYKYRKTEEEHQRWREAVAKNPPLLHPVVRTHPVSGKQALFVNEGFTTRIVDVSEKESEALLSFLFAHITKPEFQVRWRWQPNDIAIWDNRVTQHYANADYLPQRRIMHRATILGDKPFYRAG

Take `NCCS(=O)(=O)O` [taurine]: binding was put at a Kd of 175 ± 10 µM.
